From PMC10144994, “Bioactive Metabolite from Endophytic Aspergillus versicolor SB5 with Anti-Acetylcholinesterase, Anti-Inflammatory and Antioxidant Activities: In Vitro and In Silico Studies” (Microorganisms, 2023) come the findings set out here.

SMILES strings stand for the structures.

For this experiment, the target named is T1, LOX-1 (lipoxygenase from Glycine max, type I-B) (Glycine max, UniProt P08170).
T1 construct: gene LOX1.1
T1 sequence (P08170 1-839): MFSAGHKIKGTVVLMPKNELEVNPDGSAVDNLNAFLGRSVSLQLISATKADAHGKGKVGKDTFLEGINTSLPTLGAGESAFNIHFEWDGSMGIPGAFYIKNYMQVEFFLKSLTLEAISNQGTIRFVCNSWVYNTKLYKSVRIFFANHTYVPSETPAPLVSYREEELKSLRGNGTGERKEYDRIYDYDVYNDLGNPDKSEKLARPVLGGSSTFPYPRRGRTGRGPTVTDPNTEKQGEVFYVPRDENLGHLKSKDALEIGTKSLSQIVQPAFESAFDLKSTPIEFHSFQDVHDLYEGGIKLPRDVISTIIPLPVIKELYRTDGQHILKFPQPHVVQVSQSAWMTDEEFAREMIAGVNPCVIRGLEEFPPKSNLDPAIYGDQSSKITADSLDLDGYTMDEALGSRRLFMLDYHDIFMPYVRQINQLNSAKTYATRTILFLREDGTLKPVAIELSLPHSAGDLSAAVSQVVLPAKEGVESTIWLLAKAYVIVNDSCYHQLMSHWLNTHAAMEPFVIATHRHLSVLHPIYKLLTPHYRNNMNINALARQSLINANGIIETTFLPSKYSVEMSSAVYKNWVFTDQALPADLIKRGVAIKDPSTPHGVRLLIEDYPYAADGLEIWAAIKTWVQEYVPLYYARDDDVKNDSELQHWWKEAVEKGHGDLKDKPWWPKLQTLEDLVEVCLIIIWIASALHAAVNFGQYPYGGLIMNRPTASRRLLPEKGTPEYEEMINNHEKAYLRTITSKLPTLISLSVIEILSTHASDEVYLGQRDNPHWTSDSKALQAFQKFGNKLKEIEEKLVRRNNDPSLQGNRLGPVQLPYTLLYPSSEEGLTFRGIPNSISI
In words: soybean LOX, linoleic acid substrate, absorbance at […] nm. It is filed as biochemical.

For orientation: IC50 means the concentration that gives 50% inhibition. Compound `COc1cc(O)c2c(c1)C(=O)c1cc(C)cc(O)c1C2=O` [C1, 1,8-dihydroxy-3-methoxy-6-methylanthracene-9,10-dione] showed an IC50 of 61.7 µM. This lies in the double-digit micromolar range.
